Laboratory results reported in patent publication US20260083751A1, “ALLOSTERIC MODULATORS OF ANDROGEN RECEPTOR COACTIVATOR RECRUITMENT FOR CRPC THERAPY” (University of Pittsburgh – Of the Commonwealth System of …, priority 2022, published 2026).
Entries after “also recorded” stand apart in the source; their conditions may differ. Read-outs that look alike come from different tables or passages of the source.

Tests used:
Format in all cases: cell-based
[1] = test system: DHT-induced AR-mediated PSA promoter-driven transcription in PC3-AR-FL-GFP cells; assay: PSA promoter-driven transcription in PC3-AR-FL-GFP cells
Description: Compounds 1-5 were assessed to determine whether each compound could block DHT-induced AR-TIF2 PPI (protein-protein interaction complex) formation and/or disrupt preformed DHT-induced AR-TIF2 PPIs. Additionally, the following activities were evaluated: • inhibition of DHT-induced AR-mediated PSA promoter-driven transcription in C4-2 CRPC cells; • inhibition of DHT-induced AR-LBD PPI interactions with TIF2 and SRC1 coactivators; • inhibition of DHT-induced AR-LBD PPI interactions with TIF2 Box III-LXXLL peptide; • inhibition of H^3-DHT binding to AR-LBD; • inhibition of DHT-induced AR-mediated PSA promoter-driven transcription in PC3-AR-FL-GFP cells; • inhibition of constitutive AR-V7-mediated PSA promoter-driven transcription in PC3-AR-V7 GFP cells; • inhibition of constitutive UBE2C promoter-driven transcription in PC3-AR-V7 GFP cells; • inhibition of growth in AR-negative prostate cancer (PCa) cell lines PC3 and DU145; and • inhibition of growth in AR-positive PCa cell lines LNCap, C4-2 (CRPC), and 22Rv1 (CRPC).

AR = target: T1, AR (Homo sapiens, UniProt P10275, T878A); assay: AlphaScreen cellular thermal shift assay (CETSA) for AR target engagement in C4-2 cells; settings: for AR thermal stability at 46° C., compound alone / DHT-induced (DHT-enhanced) AR thermal stability at 46° C.: C4-2 cells; for AR thermal stability at 46° C., compound alone: 20 μM where stated, 46° C. for 5 min; for DHT-induced (DHT-enhanced) AR thermal stability at 46° C.: compound 20 μM where stated, 10 nM DHT; for DHT-enhanced AR stability at 46° C.: 20 μM and 50 μM compound; for Right shift of the DHT EC50: 20 or 50 μM compound; for Maximum efficacy of DHT-enhanced AR thermal stabilization: S2-6 at 20 or 50 μM, S3-11 at 50 μM; for IC50: read-out: IC50, inhibition of DHT-induced AR stability at 46° C.
T1 construct: the amount of soluble AR protein in heat shocked C4-2 cell lysates; endogenous in cells; host or cells: C4-2 castration resistant prostate cancer cells
T1 sequence (P10275 1-920 T878A): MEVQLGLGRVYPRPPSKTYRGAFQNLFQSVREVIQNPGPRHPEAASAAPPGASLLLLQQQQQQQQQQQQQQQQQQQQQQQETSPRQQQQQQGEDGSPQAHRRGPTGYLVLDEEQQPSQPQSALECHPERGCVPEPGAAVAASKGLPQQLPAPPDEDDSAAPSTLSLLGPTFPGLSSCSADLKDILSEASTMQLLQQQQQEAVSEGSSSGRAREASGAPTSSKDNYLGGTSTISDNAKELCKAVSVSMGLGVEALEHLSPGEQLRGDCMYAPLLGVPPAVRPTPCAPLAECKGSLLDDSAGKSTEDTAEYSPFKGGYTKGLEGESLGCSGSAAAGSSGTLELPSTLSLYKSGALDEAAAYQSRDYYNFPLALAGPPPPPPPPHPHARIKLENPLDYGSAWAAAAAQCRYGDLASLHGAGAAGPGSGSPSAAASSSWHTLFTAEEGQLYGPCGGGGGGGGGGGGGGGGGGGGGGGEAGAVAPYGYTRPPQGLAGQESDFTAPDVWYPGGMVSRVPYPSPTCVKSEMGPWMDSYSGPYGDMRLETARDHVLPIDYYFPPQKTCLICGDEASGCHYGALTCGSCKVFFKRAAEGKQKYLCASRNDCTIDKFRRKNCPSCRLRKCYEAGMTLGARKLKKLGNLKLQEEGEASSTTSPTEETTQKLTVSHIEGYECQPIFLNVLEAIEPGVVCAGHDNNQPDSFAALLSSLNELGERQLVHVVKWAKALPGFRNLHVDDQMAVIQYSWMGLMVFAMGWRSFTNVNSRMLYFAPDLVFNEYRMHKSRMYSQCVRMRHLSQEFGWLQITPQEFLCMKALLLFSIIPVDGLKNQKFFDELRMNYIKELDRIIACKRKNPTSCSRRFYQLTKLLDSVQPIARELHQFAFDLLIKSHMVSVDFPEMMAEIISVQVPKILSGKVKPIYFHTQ
Description: Mouse anti-hAR (BD Biosciences, San Jose, CA) and rabbit anti-hAR (MilliporeSigma, Burlington, MA) were diluted 1:330 and 1:1000 fold respectively in PBS containing 0.5 mg/mL BSA and 4 μL of the combined diluted AR antibody pair were added to 4 μL of the cell lysate supernatant in a 384-well plate and incubated in the dark for 30 min at room temperature. To each well of the 384-well plate 4 μL of a combined solution of anti-mouse IgG Alpha Donor and anti-rabbit IgG (Fc specific) AlphaLISA® Acceptor beads (Perkin Elmer, Waltham, MA) suspended in 1× lysis buffer was added to yield a final donor and acceptor bead concentrations of 40 μg/mL and 10 μg/mL respectively.

[2] = test system: DHT-induced full length AR PSA promoter-driven transcription in C4-2 CRPC cells; assay: PSA-6.1 luciferase reporter assay in C4-2 CRPC cells
Description: Prostate Specific Antigen (PSA)-6.1 Luciferase Reporter Assay in the C4-2 CRPC Cell Line: The PSA-6.1-Luc luciferase reporter plasmid was provided by Dr. Zhou Wang in the Urology department of the University of Pittsburgh Cancer Institute. The PSA-6.1-Luc reporter is controlled by a fragment of the PSA promoter that contains at least three AREs. The PSA-6.1-Luc plasmid (12 ng/well) was combined with FuGENE® 6 transfection agent at a ratio 6:1 in SFM and incubated for 25 minutes at room temperature before being combined with C4-2 cells suspended in RPMI 1640 media containing 1% penicillin-streptomycin, 1% L-glutamine, and 10% FBS. Transfected cells were then seeded into white opaque 384-well assay plates (Greiner Bio-one, #781080) at 6,000 cells per well in a volume of 30 μL and incubated in 5% CO2, 37° C., and 95% humidity for 24 h.

[3] = test system: AR-V7-mediated PSA promoter-driven transcription in PC3-AR-V7-GFP cells; assay: PSA6.1 promoter driven luciferase reporter assay in PC3-AR-V7-GFP cells
Description: PSA6.1 Promoter Driven Luciferase Reporter Assay in PC3-AR-V7-GFP Cells: PC3-AR-V7-GFP cells were bulk transfected with a mixture of FuGENE® HD transfection agent and the PSA-6.1-Luc reporter plasmid (20 ng/well) combined at a 3:1 (μL:μg) ratio in Opti-MEM™ medium (Gibco, Gaithersburg, MD) that had been incubated for 25 min at RT before being added to PC3-AR-V7-GFP cells that were suspended in RPMI 1640 (Gibco) media containing 1% L-glutamine (Invitrogen), and 10% fetal bovine serum (Gemini Bio-products). Bulk transfected PC3-AR-V7-GFP cells were seeded into white opaque 384-well assay plates (Greiner Bio-one, #781080) at 3,000 cells per well in a volume of 40 μL and incubated at 5% CO2, 37° C., and 95% humidity for 24 h. After 24 h, 5 μL of compounds were transferred to assay wells and the plates were returned to the incubator for an additional 24 h before 25 μL of BrightGlo® luciferase reagent (Promega) was added to the wells and the RLU's were captured on a SpectraMax® M5e plate reader (Molecular Devices LLC) as described previously (Fancher et al., Assay Drug Dev Technol. 2019, 17:364-386).

[4] = PC3-AR-V7-GFP cells, constitutive, read-out: Inhibition AR-V7 PSA-reporter IC50
[5] = C4-2 CRPC cells, read-out: Inhibition of DHT-induced full length AR PSA reporter IC50
[6] = 24 h, 24 h exposure, read-out: IC50 in PSA-Luc AR-V7 reporter assay (potency range in words)
[7] = C4-2, 24 h, 24 h exposure, read-out: IC50 in PSA-Luc reporter assay, C4-2 cells (potency range in words)
[8] = b132, read-out: IC50, DHT-induced AR-mediated PSA promoter-driven transcription in C4-2 CRPC cells

Row | SMILES | IC50 [1] | IC50 [2, 5] | IC50 (AR) | IC50 [3, 6] | IC50 [2, 7] | also measured
1 | Cc1nc(N)cc(N2CCOc3c(O)cc(-c4ccccc4C)cc3C2)n1 [Compound S1-2] | < 44 µM | < 37 µM | – | – | – | IC50 [3, 4]: 12.2 µM
2 | Cc1ccccc1-c1cc(O)c2c(c1)CN(c1cc(N)ncn1)CCO2 [Compound S1-4] | – | < 37 µM | – | – | – | –
3 | CC(=O)NCCC(=O)NCc1ccc2[nH]c(-c3ccccc3F)c(C)c2c1 [Compound S3-13] | > 100 µM | – | – | 10 to 100 µM | – | IC50 [2, 8]: 40 to 59 µM
4 | Cc1c(-c2ccc(F)cc2)[nH]c2ccc(CNC(=O)c3ccc(CO)o3)cc12 [Compound S3-15] | ~10 µM | – | 86.1 µM | 1 to 10 µM | 1 to 10 µM | –
5 | CNC(=O)c1ccc(-c2c[nH]c3c(C)cccc23)cc1 [Compound S3-21] | > 100 µM | – | – | – | 10 to 100 µM | IC50 [3, 4]: > 100 µM; IC50 [2, 8]: 40 to 59 µM

Now from value to compound, other results behind:

Row | IC50 [1] | IC50 [2, 5] | IC50 (AR) | IC50 [3, 6] | IC50 [2, 7] | SMILES | also measured
6 | < 44 µM | – | – | – | – | Cc1ccccc1-c1cc(O)c2c(c1)CN(c1nc(C(N)=O)cs1)CCO2 [Compound S1-1] | AR thermal stability at 46° C., compound alone (AR): did not stabilize AR; DHT-induced (DHT-enhanced) AR thermal stability at 46° C. (AR): blocked DHT-enhanced AR thermal stabilization; also recorded: inhibition of DHT-enhanced AR thermal stability; IC50 ([2]; C4-2 CRPC cells, listed as 1, read-out: Inhibition of DHT-induced full length AR PSA reporter IC50): 5.27 µM
7 | – | < 37 µM | – | – | – | Cc1ccccc1-c1cc(O)c2c(c1)CN(c1nccs1)CCO2 [Compound S1-3] | –
8 | – | < 37 µM | – | – | – | COc1cc(-c2ccc(C)s2)cc2c1OCCN(c1nc(C(N)=O)cs1)C2 [Compound S1-5] | –
9 | ~28 µM | – | 4.1 µM | – | – | Cc1nsc(NC(=O)N2CCC(Sc3ccccc3C)CC2)n1 [Compound S2-6] | DHT-enhanced AR stability at 46° C. (AR): inhibited DHT-enhanced AR stability; Right shift of the DHT EC50 (AR): > 10 fold; AR thermal stability at 46° C., compound alone (AR): did not stabilize AR; AR thermal stability at 46° C., compound alone (AR; listed as 6): did not enhance AR stability; DHT-induced (DHT-enhanced) AR thermal stability at 46° C. (AR): blocked DHT-enhanced AR thermal stabilization; also recorded: inhibition of DHT-enhanced AR thermal stability; DHT-induced (DHT-enhanced) AR thermal stability at 46° C. (AR; listed as 6): inhibited DHT-induced AR stability; Maximum efficacy of DHT-enhanced AR thermal stabilization (AR): reduced the maximum efficacy of DHT-enhanced AR thermal stabilization
10 | ~50 µM | 4.21 µM | 29.9 µM | 10 to 100 µM | 1 to 10 µM | Cc1c(-c2ccccc2F)[nH]c2ccc(CNC(=O)CCc3cn[nH]c3)cc12 [Compound S3-11] | IC50 [3, 4]: 3.13 µM; DHT-enhanced AR stability at 46° C. (AR): inhibited DHT-enhanced AR stability; Right shift of the DHT EC50 (AR): ≥ 10 fold; AR thermal stability at 46° C., compound alone (AR): did not stabilize AR; DHT-induced (DHT-enhanced) AR thermal stability at 46° C. (AR): blocked DHT-enhanced AR thermal stabilization; also recorded: inhibition of DHT-enhanced AR thermal stability; Maximum efficacy of DHT-enhanced AR thermal stabilization (AR): reduced the maximum efficacy of DHT
11 | > 100 µM | – | 52.6 µM | 1 to 10 µM | 1 to 10 µM | Cc1c(-c2ccccc2F)[nH]c2ccc(CNC(=O)CCc3cnccn3)cc12 [Compound S3-12] | –
12 | ~50 µM | – | – | 10 to 100 µM | – | Cc1c(-c2ccccc2F)[nH]c2ccc(CNC(=O)c3ccc(CO)o3)cc12 [Compound S3-14] | IC50 (AR; b133, unit inferred): 9.46 µM
13 | ~50 µM | – | 9.46 µM | 10 to 100 µM | 1 to 10 µM | Cc1cccc2c(-c3ccc(O)c(F)c3)c[nH]c12 [Compound S3-17] | DHT-enhanced AR stability at 46° C. (AR): inhibited DHT-enhanced AR stability
